{"source": "patent US20250177581A1", "about": "“NTSR1-TARGETED RADIOPHARMACEUTICALS AND DNA DAMAGE RESPONSE INHIBITOR COMBINATION THERAPY” (Fusion Pharmaceuticals Inc., priority 2022, published 2025)", "test_system": "CT-26-mNTSR1 tumor", "assay": "Combination of [^225Ac]-Compound A and Olaparib in CT-26-mNTSR1 tumor bearing mice, tumor growth", "format": "in vivo, mouse", "details": "olaparib monotherapy at 50 mg/kg", "protocol": "An in vivo study was conducted to test the effect of [^225Ac]-Compound A (as described in Example 3) in combination with Olaparib in CT-26-mNTSR1 tumor bearing mice.", "data": [{"smiles": "O=C(c1cc(Cc2n[nH]c(=O)c3ccccc23)ccc1F)N1CCN(C(=O)C2CC2)CC1", "note": "[olaparib]", "values": [{"measurement": "reduction in tumor growth compared to control mice", "result": "slight or neglible reduction in tumor growth"}]}]}
